Results published in patent US20250129070A1, “BIFUNCTIONAL ANDROGEN RECEPTOR COMPOUNDS” (priority 2023, published 2025).
Like-named read-outs stand apart in the source and are kept apart here.

Columns and labels:
Format in all cases: cell-based
[1] = system: AR / CBP ternary complex; test: Ternary complex formation assay (sandwich ELISA, AR capture / CBP detection) in VCaP cell lysates; details: 1.5 hours treatment, sandwich ELISA (AR capture, CBP or p300 detection)
How it was run: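 Anti-AR (AR 441)-coated plates capture AR from lysates of VCaP cells grown ≥3 days at 50K/well in 5% charcoal-stripped FBS, dosed with bifunctional for 1.5 h and lysed 30 min at 4 °C. Co-captured CBP/p300 is probed with rabbit mAb and HRP anti-rabbit, then QuantaRed fluorescence (570/585) is read at 0, 5 and 15 min.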

[2] = system: VCaP cells; test: VCaP growth inhibition assay; details: 30 pM R1881, 9 days, CTG
How it was run: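 Growth read by CTG luminescence after 9-day exposure to compound (final 100 nM–10 fM, 1:5 steps) plus 30 pM R1881, in phenol red-free DMEM with 5% CSS. Cells pre-incubated 72 h before dosing; IC50 by nonlinear 4-parameter regression.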

[3] = system: HEK-293 cells; test: HEK-293 growth inhibition assay; details: 3 days, CTG
How it was run: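 HEK-293 cells plated 24 hours before compound treatment, then exposed for 3 days at 37°C/5% CO2. Viability by CellTiter-Glo luminescence after 20 minutes at room temperature. IC50 from RLU versus concentration via 4-parameter logistic nonlinear regression.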

[4] = target: Histone H3.3/CBP-BD Interaction (Homo sapiens, UniProt Q92793); test: NanoBRET cellular assay (Histone H3.3/CBP-BD Interaction Assay)
Histone H3.3/CBP-BD Interaction, sequence (Q92793 1085-1192 limits assumed): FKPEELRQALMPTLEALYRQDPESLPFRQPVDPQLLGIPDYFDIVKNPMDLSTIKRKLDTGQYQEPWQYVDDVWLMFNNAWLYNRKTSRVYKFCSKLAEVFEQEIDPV

| Compound | EC50 [1] [nM] | IC50 [2] [nM] | IC50 [3] [nM] | IC50 [4] [nM] | IC50 ([4]; HEK293 cells transfected with Histone H3.3-HaloTag and CBP-BD-NanoLuc, 22 hours treatment, test compounds starting at 1 uM, SGC-CBP-30 starting at 10 uM, 10-dose with 3-fold dilution) [nM] |
| --- | --- | --- | --- | --- | --- |
| CNC(=O)N1CCc2c(c(N3CCCc4cc(-c5cnn(C)c5)c(C(F)F)cc43)nn2C2CCN(C(=O)CN3CCN(c4ncc(C(=O)NC5C(C)(C)C(Oc6ccc(C#N)c(Cl)c6)C5(C)C)cn4)CC3)CC2)C1 (centres unmarked) [Compound 109, 1-[1-[2-[4-[5-[[3-(3-chloro-4-cyano-phenoxy)-2,2,4,4-tetramethyl-cyclobutyl]carbamoyl]pyrimidin-2-yl]piperazin-1-yl]acetyl]-4-piperidyl]-3-[7-(difluoromethyl)-6-(1-methylpyrazol-4-yl)-3,4-dihydro-2H-quinolin-1-yl]-N-methyl-6,7-dihydro-4H-pyrazolo[4,3-c]pyridine-5-carboxamide] | < 1 | ≤ 0.1 | > 10000 | > 1000 | – |
| CNC(=O)N1CCc2c(c(N3CCCc4cc(-c5cnn(C)c5)c(C(F)F)cc43)nn2C2CCOCC2)C1 [GNE-781, reference compound] | – | – | – | – | 0.123 |
| CNC(=O)N1CCc2c(c(N3CCCc4cc(-c5cnn(C)c5)c(C(F)F)cc43)nn2C2CCN(CC3CCN(c4ncc(C(=O)NC5C(C)(C)C(Oc6ccc(C#N)c(Cl)c6)C5(C)C)cn4)CC3)CC2)C1 (centres unmarked) [Compound 82, 1-[1-[[1-[5-[[3-(3-chloro-4-cyano-phenoxy)-2,2,4,4-tetramethyl-cyclobutyl]carbamoyl]pyrimidin-2-yl]-4-piperidyl]methyl]-4-piperidyl]-3-[7-(difluoromethyl)-6-(1-methylpyrazol-4-yl)-3,4-dihydro-2H-quinolin-1-yl]-N-methyl-6,7-dihydro-4H-pyrazolo[4,3-c]pyridine-5-carboxamide] | < 1 | ≤ 0.1 | > 10000 | – | – |
| CC(=O)N1CCc2c(c(N3CCCc4cc(-c5cnn(C)c5)c(C(F)F)cc43)nn2C2CCN(C(=O)COC3CCN(c4ncc(C(=O)NC5C(C)(C)C(Oc6ccc(C#N)c(Cl)c6)C5(C)C)cn4)CC3)CC2)C1 (centres unmarked) [Compound 69, 2-[4-[2-[4-[5-acetyl-3-[7-(difluoromethyl)-6-(1-methylpyrazol-4-yl)-3,4-dihydro-2H-quinolin-1-yl]-6,7-dihydro-4H-pyrazolo[4,3-c]pyridin-1-yl]-1-piperidyl]-2-oxo-ethoxy]-1-piperidyl]-N-[3-(3-chloro-4-cyano-phenoxy)-2,2,4,4-tetramethyl-cyclobutyl]pyrimidine-5-carboxamide] | < 1 | 0.1 to 1 | > 10000 | – | – |
| CC(=O)N1CCc2c(c(N3CCCc4cc(-c5cnn(C)c5)c(C(F)F)cc43)nn2C2CCN(CC3CCN(c4ncc(C(=O)NC5C(C)(C)C(Oc6ccc(C#N)c(Cl)c6)C5(C)C)cn4)CC3(C)C)CC2)C1 (centres unmarked) [Compound 356, 2-[4-[[4-[5-acetyl-3-[7-(difluoromethyl)-6-(1-methylpyrazol-4-yl)-3,4-dihydro-2H-quinolin-1-yl]-6,7-dihydro-4H-pyrazolo[4,3-c]pyridin-1-yl]-1-piperidyl]methyl]-3,3-dimethyl-1-piperidyl]-N-[3-(3-chloro-4-cyano-phenoxy)-2,2,4,4-tetramethyl-cyclobutyl]pyrimidine-5-carboxamide] | < 1 | ≤ 0.1 | > 1000 | – | – |
| CC(=O)N1CCc2c(c(N3CCCc4cc(-c5cnn(C)c5)c(C(F)F)cc43)nn2C2CCN(C3CCN(c4ncc(C(=O)NC5C(C)(C)C(Oc6ccc(C#N)c(Cl)c6)C5(C)C)cn4)CC3)CC2)C1 (centres unmarked) [Compound 85, 2-[4-[4-[5-acetyl-3-[7-(difluoromethyl)-6-(1-methylpyrazol-4-yl)-3,4-dihydro-2H-quinolin-1-yl]-6,7-dihydro-4H-pyrazolo[4,3-c]pyridin-1-yl]-1-piperidyl]-1-piperidyl]-N-[3-(3-chloro-4-cyano-phenoxy)-2,2,4,4-tetramethyl-cyclobutyl]pyrimidine-5-carboxamide] | < 1 | 0.1 to 1 | > 10000 | – | – |
| CNC(=O)N1CCc2c(c(N3CCCc4cc(-c5cnn(C)c5)c(C(F)F)cc43)nn2C2CCN(C(=O)COCC3CCN(c4ncc(C(=O)NC5C(C)(C)C(Oc6ccc(C#N)c(Cl)c6)C5(C)C)cn4)CC3)CC2)C1 (centres unmarked) [Compound 107, 1-[1-[2-[[1-[5-[[3-(3-chloro-4-cyano-phenoxy)-2,2,4,4-tetramethyl-cyclobutyl]carbamoyl]pyrimidin-2-yl]-4-piperidyl]methoxy]acetyl]-4-piperidyl]-3-[7-(difluoromethyl)-6-(1-methylpyrazol-4-yl)-3,4-dihydro-2H-quinolin-1-yl]-N-methyl-6,7-dihydro-4H-pyrazolo[4,3-c] pyridine-5-carboxamide] | < 1 | ≤ 0.1 | > 10000 | – | – |
| COc1cc(OC2C(C)(C)C(NC(=O)c3ccc(N4CCC(CN5CCC(n6nc(N7CCCc8cc(-c9cnn(C)c9)c(C(F)F)cc87)c7c6CCN(C(C)=O)C7)CC5)C(C)C4)cc3)C2(C)C)ccc1C#N (centres unmarked) [Compound 263, 4-[4-[[4-[5-acetyl-3-[7-(difluoromethyl)-6-(1-methylpyrazol-4-yl)-3,4-dihydro-2H-quinolin-1-yl]-6,7-dihydro-4H-pyrazolo[4,3-c]pyridin-1-yl]-1-piperidyl]methyl]-3-methyl-1-piperidyl]-N-[3-(4-cyano-3-methoxy-phenoxy)-2,2,4,4-tetramethyl-cyclobutyl]benzamide] | < 1 | ≤ 0.1 | > 1000 | – | – |
| CNC(=O)N1CCc2c(c(N3CCCc4cc(-c5cnn(C)c5)c(C(F)F)cc43)nn2C2CCN(C(=O)COCCC3CCN(c4ncc(C(=O)NC5C(C)(C)C(Oc6ccc(C#N)c(Cl)c6)C5(C)C)cn4)CC3)CC2)C1 (centres unmarked) [Compound 99, 1-[1-[2-[2-[1-[5-[[3-(3-chloro-4-cyano-phenoxy)-2,2,4,4-tetramethyl-cyclobutyl]carbamoyl]pyrimidin-2-yl]-4-piperidyl]ethoxy]acetyl]-4-piperidyl]-3-[7-(difluoromethyl)-6-(1-methylpyrazol-4-yl)-3,4-dihydro-2H-quinolin-1-yl]-N-methyl-6,7-dihydro-4H-pyrazolo[4,3-c]pyridine-5-carboxamide] | < 1 | ≤ 0.1 | > 10000 | – | – |
| CNC(=O)N1CCc2c(c(N3CCCc4cc(-c5cnn(C)c5)c(C(F)F)cc43)nn2C2CCN(C(=O)COCCCN3CCN(c4ncc(C(=O)NC5C(C)(C)C(Oc6ccc(C#N)c(Cl)c6)C5(C)C)cn4)CC3)CC2)C1 (centres unmarked) [Compound 105, 1-[1-[2-[3-[4-[5-[[3-(3-chloro-4-cyano-phenoxy)-2,2,4,4-tetramethyl-cyclobutyl]carbamoyl]pyrimidin-2-yl]piperazin-1-yl]propoxy]acetyl]-4-piperidyl]-3-[7-(difluoromethyl)-6-(1-methylpyrazol-4-yl)-3,4-dihydro-2H-quinolin-1-yl]-N-methyl-6,7-dihydro-4H-pyrazolo[4,3-c]pyridine-5-carboxamide] | < 1 | 0.1 to 1 | > 10000 | – | – |
